Data published in article PMC3243694, “Integrated Dataset of Screening Hits against Multiple Neglected Disease Pathogens” (PLoS Neglected Tropical Diseases, 2011).

Legend:
[1] = system: Trypanosoma brucei brucei Squib-427 strain; test: Antitrypanosomal activity assay, T. brucei (resazurin); type: cell-based; conditions: T. brucei Squib 427 bloodstream forms, 72 h
Procedure: (§1) The compound set was tested against the following parasites: intra-erythrocytic forms in human red blood cells of P. falciparum K1 strain (malaria), [16], [32], [33], [35], bloodstream forms of T. brucei Squib 427 strain (human African trypanosomiasis, HAT), [31], [32], [34], intracellular amastigotes of T. cruzi Tulahuen CL2, beta- galactosidase strain (Chagas' Disease), [32]–[35], intracellular amastigotes of L. infantum MHOM/MA(BE)/67 (leishmaniasis), [32]–[36], larval and/or adult worms of S. mansoni Puerto Rican strain (schistosomiasis), [31], [37], microfilariae of B. malayi (lymphatic filariasis), [30] and microfilariae of O. ochengi or O. lienalis (onchocerciasis), [30]. It should be noted that the human pathogen for onchocerciasis is Onchocerca volvulus, but due to lack of a suitable in vitro assay or animal models for this pathogen, O. ochengi and lienalis, which are both animal pathogens, are used in the primary and secondary assays, [30].

[2] = system: Onchocerca adult worms; type: cell-based
Source text: In some cases, particularly for the antifilarial screens, a second whole organism test with adult stage parasites is included prior to animal evaluation. The decision to utilize microfilariae for primary screening was based on throughput and biological considerations. It is difficult to acquire enough adult filariae to enable screening more than 1000 compounds per year, a rate far lower than needed for timely evaluation of the available compounds. In light of this situation, and considering that we are targeting molecules that are active on both stages, microfilariae screening was adopted as a suitable filter to identify compounds with potential macrofilaricidal activity.
(§2) 4240 compound s were screened against O. ochengi at the University of Buea in Cameroon, while a subset of […] compounds was successfully screened in UK by the Northwick Park Institute for Medical Research against O. lienalis, at a uniform molarity. […] After removing molecules that were toxic to mammalian cells (IC50<5 µg/ml), 292 molecules remained for further evaluation. […] From the latter sub-set, […] distinct chemical series and one singleton [structure # 35] were active against both microfilaria and adults. One series [structures # 2, 3] was deemed not interesting due to lack of selectivity against mammalian cells. The remaining series is being transferred to ANDI for further progression as part of a new collaboration.

[3] = system: Schistosoma mansoni adult worms; test: Anti-Schistosoma activity assay (adult worm motility); type: cell-based; conditions: S. mansoni adult worms; 12.5 µM (method: 10 µg/ml or 12.5 µM)
Procedure: as §1
A subset of 9478 of the 10,000 compound collection was tested against the Puerto Rican strain of S. mansoni. 6144 of these were tested in a primary larval assay followed by the ex-vivo adult secondary screen. The remainder was screened only in the adult assay. […] The 65 compounds were sorted by chemical attractiveness, potency against adult schistosomes in culture, selectivity against other parasites, and toxicity to mammalian cells in culture. Based on this analysis, 5 series encompassing 13 compounds were chosen for advancement through the African Network for Drug and Diagnostic Innovation (ANDI) and other PDPs. Representative structures [structures # 13, 27, 28] are shown (Table S1). These compounds are unburdened by obvious toxic moieties, have acceptable compliance with the Lipinski rules, are selectively active against schistosomes and are not overtly toxic to mammalian cells. It has unfortunately not been possible to titrate all of these hits in culture; of about 50% for which such data are available, none has an IC50<2 µg/ml (which is the initial potency criteria).

[4] = system: MRC-5 cell line (diploid human embryonic lung fibroblast); test: Cytotoxicity on MRC-5 cells; type: cell-based
Source text: [table] An important part of the screen is the evaluation of all compounds for cytotoxicity using the diploid human embryonic lung fibroblast MRC-5 cell line (Figure 2). Further evaluation of cytotoxicity also takes advantage of the assays for intracellular protozoan parasites, as in the case of L. infantum and T. cruzi, which include murine peritoneal macrophage host cells and MRC-5SV2 human lung fibroblast cells, respectively, in the culture system.

[5] = system: Trypanosoma cruzi, Tulahuen CL2 strain; test: Antitrypanosomal activity assay, T. cruzi in MRC-5 cells; type: cell-based; conditions: T. cruzi Tulahuen CL2 in MRC-5 cells, 7 days
Procedure: as §1
171 of the 744 actives passed the initial criterion of IC50<1 µg/ml for T. cruzi Tulahuen CL2, beta galactosidase strain maintained on MRC-5SV2 cells in MEM medium (MRC-5 cell/parasite inoculum: 4.10^3 cells/well+4.10^4 parasites/well), supplemented with […] L-glutamine, 16.5 mM NaHCO3 and 5% heat inactivated fetal calf serum. […] Of these, 109 were eliminated [structures #1–6] for poor selectivity versus mammalian cells (SI<50) and an additional 11 due to undesirable chemical attributes. The remaining 51 compounds were sorted into 10 series (45 compounds) and 6 singletons [structures # 21, 22]. Two of these series with excellent potency against T. cruzi, limited activity against other protozoa and SI values >50 (not shown), have been transferred to DNDi for further evaluation.

[6] = system: Plasmodium falciparum K1 strain; test: Anti-Plasmodium activity assay (Malstat); type: cell-based; conditions: P. falciparum K1, 72 h
Procedure: as §1

[7] = system: Onchocerca (lienalis or ochengi) microfilariae; test: Anti-Onchocerca microfilariae motility assay; type: cell-based, Onchocerca lienalis or O. ochengi
Procedure: as §1, §2

Row | SMILES | HAT IC50 [1] [µg/mL] | ONC/AW % worm Mortality @ 12.5µM [2] [%] | SCH % Motility Reduction at 12.5µM [3] [%] | CYT IC50 [4] [µg/mL] | CHA IC50 [5] [µg/mL] | MAL IC50 [6] [µg/mL] | ONC/MF % Motility Reduction at 12.5µM [7] [%]
1 | CSCc1csc(NC(=O)Cc2ccc(Cl)cc2)n1 [TDR81206] | 3.0 | 75 | 0 | 3.7 | 2.47 | 5.98 | 100
2 | Cc1cc(NC(=O)CSc2ccc3nnc(-c4cccs4)n3n2)no1 [TDR78826] |  | 0 | 0 | >11.17 | 4.97 | 0.16 | 6.7
3 | CCCc1cc(=O)[nH]c(-n2nc(C)cc2NC(=O)C23CC4CC(CC(C4)C2)C3)n1 [TDR79936] | <0.12 | 75 | 100 | <0.12 | <0.12 | <0.12 | 100
